Assays:
[1] = tested on: BMECs; test: MTT assay on normal BMECs (48 and 96 h); type: cell-based; settings: Rattus norvegicus
Experimental: (§1) Rat brain microvascular endothelial cells (BMECs) were separated from the cerebral cortex of 18-day-old male Sprague-Dawley rats as described previously ([Biegel et al., 1995]). Briefly, the cerebral cortical tissues were dissected from meninges after the rats were sacrificed, then the tissues were homogenated in physiological buffer solution (pH 7.4). After centrifugation, the pellets were collected, and the microvascular segments were then digested with 0.1% collagenase II at 37°C for 1 h. […] The second passage was used for co-culture of BBB cellular models.
(§2) The anti-glioma effects of these compounds were evaluated by MTT assay in rat C6 glioma cells, human glioma U87 and U251 cells, and BMECs cells. Brieﬂy, cells were seeded at the density of 4,000 cells/well in 96-well plates overnight. For the first screening, the cells were incubated with 10, 20, 100 μM compounds for 48 h. Then cell viabilities were detected by MTT assay as described above. For the second screening, the cells were incubated with 6.25-, 12.5-, 25-, 50-, and 100μM compounds for 48 and 96 h, and then detected by MTT assay. The OD of each well was measured at 490 nm on an ELISA microplate reader. The inhibitory rates and IC50 values were calculated.

[2] = tested on: U87 cells; test: Apoptosis by Annexin V-FITC/PI staining, U87 cells; type: cell-based, human; settings: 48 h, mean ± SD
Experimental: The effects of test compound on apoptosis were detected by Annexin V-FITC/PI staining. Briefly, after treatment with indicated concentrations of test compounds (20, 50 μM) for 48 h, the cells were collected and resuspended in 500-μl detection buffer. Then 5μl PI and 5μl Annexin V-FITC were added to the detection buffer. Then, cells were incubated for 15 min in the dark and analyzed using Flow cytometer (Becton Dickinson) and WinMDI 2.8 software (Scripps Institute, La Jolla, CA, USA).

[3] = tested on: rat C6 glioma cells; test: Anti-glioma MTT assay, C6 cells; type: cell-based; settings: for IC50: Rattus norvegicus, C6 cells
Experimental: as §2

[4] = Transport experiment in the in vitro BBB cell model; type: in vitro ADME; settings: Sprague-Dawley, rat, C0 20 μM, apical to basolateral, mean ± SD (n = 3-4), read-out: Papp × 10^−6
Experimental: as §1
Astrocytes were separated from the cerebral cortex of newborn Sprague-Dawley rats (1–2 days) as described previously ([Jeliazkova-Mecheva and Bobilya, 2003]). The brain tissues (removal of the meninges and blood vessel) were minced and mechanical homogenized and then digested with 0.25% trypsin-EDTA at 37°C for 10 min.
The in vitro BBB cell model was constructed in the Transwell 24well plate ([…], Millipore, USA). Before the experiment, the transwell filters were coated with matrigel matrix. The isolated rat astroglias were seeded onto one side of polycarbonate inserts (5 × 10^4 cells/insert). After 3 to 5 days, the rat BMECs were seeded at a density of 1.5 × 10^5 cells/insert onto the opposite side of the inserts to produce rat BMEC monolayers. The in vitro BBB cell model was formed 3 to 4 days. Trans-epithelial electrical resistance (TEER) measurements were performed everyday after the co-cultures formed until the TEER value increased to […] ([Yang et al., 2014]) ( Figure 2C ).
The transport experiments were performed by adding 400 μl HBSS containing the compounds to the apical side (AP), with 600μl HBSS to the basolateral side (BL) at the same time. Samples (60 μl) were collected from the BL chamber at the time points of 15, 30, 60, 90, 120, and 180 min, and the corresponding volume of HBSS buffer was immediately added into the BL chamber. The samples were precipitated by methanol, and the concentrations of the compounds in the samples were determined by high-performance liquid chromatography (HPLC). The HPLC conditions were as follows: Agilent TC-C18 column (250 × 4.6 mm; 5 μm), methanol 1% ethanoic acid mobile phase (from 10:90 to 90:10, v/v), with gradient elution at a flow rate of 1.0 ml/min. The detection wavelength was 275 nm for these compounds. The run time was 20 min. The apparent permeability coefficients (P app) were calculated from the following formula: P app = (∆Q/∆t)/(A × C 0), where ∆Q/∆t is the linear appearance rate of the compound on the BL side (μmol/s), A is the surface area of the cell monolayer (cm^2), and C 0 is the initial concentration of the drug on the AP side (μmol/L).

[5] = tested on: NADPH oxidase (NOX); test: NOX activity determination, U87 cells; type: cell-based, human; settings: 20 and 50 μM
Experimental: (§3) The effects of candidate drug on NOX activities were measured using cytochrome c reductase (NADPH) Assay Kit (Sigma-Aldrich, St. Louis, MO, USA). Brieﬂy, after the compound treatment (20, 50 μM), the cells were collected and homogenized in an isotonic buffer ([…]), and centrifuged at 1,000 g to obtain the post-nuclear supernatants. Then 50μl samples were added to 950μl working solution (at 25°C) in a 1ml cuvette and mixed by inversion. Then 20μl cytochrome c oxidase inhibitor solution was added. After reaction with 100 μl NADPH solution, the cytochrome c absorbance was monitored at 550 nm by a spectrophotometer.

[6] = tested on: NADPH oxidase (NOX); test: NOX activity determination, C6 cells; type: cell-based, rat; settings: 20 and 50 μM
Experimental: as §3

[7] = tested on: human glioma U251 cells; test: Anti-glioma MTT assay, U251 cells; type: cell-based
Experimental: as §2

[8] = tested on: ROS levels in U87 cells; test: Intracellular ROS levels (DCF, flow cytometry), U87 cells; type: cell-based, human; settings: 20 and 50 μM, 48 h, P < 0.05
Experimental: Intracellular reactive oxygen species (ROS) levels were detected using Reactive Oxygen Species Assay Kit (Jiancheng Bioengineering, Nanjing, China) as per the manufacturer’s instruction. Brieﬂy, after treatment with indicated concentrations of test compound (20, 50 μM) for 48 h, the cells were incubated in 1 ml 2,7-dichloroﬂuorescin diacetate working solution (100 μM) for 30 min at 37°C in the dark, and washed with PBS. Then ﬂuorescence intensities of intracellular DCF were detected using a FACS Calibur ﬂow cytometer (Becton-Dickinson, San Jose, CA, USA). H2O2 treatment group was used as the positive control group.

[9] = tested on: human glioma U87 cells; test: Anti-glioma MTT assay, U87 cells; type: cell-based; settings: for IC50: Homo sapiens, U-87 MG, U87 cells
Experimental: as §2

[10] = 10, 20, 100 μM, 48 h, compared with D1, P < 0.05

- IC50 ([3]; 48 h): 35.1 µM
- IC50 ([3]; 96 h): 25.4 µM
- Papp at 90 min, 20 μM [4]: 12 ± 0.94 ×10⁻⁶ cm/s
- IC50 ([7]; U-251, 48 h): 40.1 µM
- IC50 ([7]; U-251, 96 h): 35.1 µM
- IC50 ([9]; 48 h): 23.5 µM
- IC50 ([9]; 96 h): 21.5 µM
SMILES: COc1cc(C(=O)CSCc2ccccc2Cl)ccc1O [Compound D31, 2-((2-Chlorobenzyl)thio)-1-(4-Hydroxy-3-Methoxyphenyl)Ethan-1-One]
- IC50 ([1]; 48 h): > 100 µM
- IC50 ([1]; 96 h): > 100 µM
- Apoptotic cell rate ([2]; 20 μM): 16.7 ± 3.1%
- Apoptotic cell rate ([2]; 50 μM): 29.7 ± 4.7%
- Anti-proliferation effect on C6 cells (first screening) [3, 10]: significant anti-proliferation effects
- Effect on NOX activities vs control [5]: no obvious effects
- Effect on NOX activities vs control [6]: no obvious effects
- Fluorescence intensity of DCF (ROS generation) vs control [8]: significant increases
- Anti-proliferation effect on U87 cells (first screening) [9, 10]: significant anti-proliferation effects

Reference: PMC6733959, “Synthesis and Evaluations of Novel Apocynin Derivatives as Anti-Glioma Agents” (Frontiers in Pharmacology, 2019)
